26 molecules from ChEMBL document CHEMBL5291721, “A preclinical secondary pharmacology resource illuminates target-adverse drug reaction associations of marketed drugs” (Nat Commun, 2023) can be followed below.

Experiment [1] deals with Beta-3 adrenergic receptor (Homo sapiens, UniProt P13945).
A further experiment has as its target T1, Progesterone receptor (Homo sapiens, UniProt P06401).
T1 sequence (P06401 whole entry): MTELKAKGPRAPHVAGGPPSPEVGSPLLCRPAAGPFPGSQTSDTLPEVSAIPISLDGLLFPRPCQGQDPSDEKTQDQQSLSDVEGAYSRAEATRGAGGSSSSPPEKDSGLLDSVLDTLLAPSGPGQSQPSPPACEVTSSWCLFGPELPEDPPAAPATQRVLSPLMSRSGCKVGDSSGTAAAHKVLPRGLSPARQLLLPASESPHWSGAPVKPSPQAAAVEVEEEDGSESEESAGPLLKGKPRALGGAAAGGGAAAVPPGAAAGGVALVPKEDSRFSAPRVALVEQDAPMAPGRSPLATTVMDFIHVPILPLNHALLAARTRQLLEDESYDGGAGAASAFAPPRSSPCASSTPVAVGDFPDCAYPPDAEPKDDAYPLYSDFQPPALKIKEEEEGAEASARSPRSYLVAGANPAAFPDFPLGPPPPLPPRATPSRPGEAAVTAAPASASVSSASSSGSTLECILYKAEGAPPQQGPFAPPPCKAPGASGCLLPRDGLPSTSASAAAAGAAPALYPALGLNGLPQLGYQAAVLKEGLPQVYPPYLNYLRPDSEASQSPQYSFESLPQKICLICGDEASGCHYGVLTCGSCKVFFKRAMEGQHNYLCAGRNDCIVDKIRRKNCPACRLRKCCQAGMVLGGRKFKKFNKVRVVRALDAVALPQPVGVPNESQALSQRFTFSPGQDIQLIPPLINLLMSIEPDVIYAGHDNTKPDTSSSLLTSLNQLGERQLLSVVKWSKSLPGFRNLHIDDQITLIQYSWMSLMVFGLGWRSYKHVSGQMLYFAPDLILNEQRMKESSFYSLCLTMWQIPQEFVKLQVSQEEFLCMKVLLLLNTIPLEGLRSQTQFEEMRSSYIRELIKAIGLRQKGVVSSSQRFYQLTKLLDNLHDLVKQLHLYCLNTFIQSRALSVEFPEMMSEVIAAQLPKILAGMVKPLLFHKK

Experiment [2] concerns the target T2, Alpha-2A adrenergic receptor (Homo sapiens, UniProt P08913).
T2 sequence (P08913 whole entry): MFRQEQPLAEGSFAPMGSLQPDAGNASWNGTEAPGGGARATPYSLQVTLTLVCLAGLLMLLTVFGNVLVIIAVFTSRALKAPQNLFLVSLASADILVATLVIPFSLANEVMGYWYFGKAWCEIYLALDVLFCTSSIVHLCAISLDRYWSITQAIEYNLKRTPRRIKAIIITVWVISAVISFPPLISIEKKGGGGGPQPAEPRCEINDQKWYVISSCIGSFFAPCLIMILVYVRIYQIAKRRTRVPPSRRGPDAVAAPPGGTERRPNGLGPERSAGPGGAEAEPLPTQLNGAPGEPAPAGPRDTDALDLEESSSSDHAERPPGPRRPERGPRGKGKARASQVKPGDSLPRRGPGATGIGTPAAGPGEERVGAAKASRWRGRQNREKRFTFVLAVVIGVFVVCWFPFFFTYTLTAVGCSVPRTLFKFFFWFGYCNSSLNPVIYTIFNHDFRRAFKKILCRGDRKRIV

The target of another experiment is D(1A) dopamine receptor (Homo sapiens, UniProt P21728).
In experiment [3] the target is T3, 5-hydroxytryptamine receptor 1A (Homo sapiens, UniProt P08908).
T3 sequence (P08908 whole entry): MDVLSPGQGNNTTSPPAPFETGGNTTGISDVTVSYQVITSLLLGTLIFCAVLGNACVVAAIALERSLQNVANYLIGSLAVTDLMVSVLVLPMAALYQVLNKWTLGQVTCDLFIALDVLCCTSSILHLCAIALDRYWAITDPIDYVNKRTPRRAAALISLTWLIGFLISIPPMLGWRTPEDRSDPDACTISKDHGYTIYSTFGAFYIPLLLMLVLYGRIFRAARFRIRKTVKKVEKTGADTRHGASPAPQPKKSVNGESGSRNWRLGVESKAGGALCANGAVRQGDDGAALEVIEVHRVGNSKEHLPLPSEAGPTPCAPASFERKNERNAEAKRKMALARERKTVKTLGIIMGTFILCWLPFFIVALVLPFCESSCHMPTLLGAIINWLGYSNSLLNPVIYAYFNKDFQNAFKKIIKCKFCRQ

The target of experiment [4] is T4, Androgen receptor (Rattus norvegicus, UniProt P15207).
T4 sequence (P15207 whole entry): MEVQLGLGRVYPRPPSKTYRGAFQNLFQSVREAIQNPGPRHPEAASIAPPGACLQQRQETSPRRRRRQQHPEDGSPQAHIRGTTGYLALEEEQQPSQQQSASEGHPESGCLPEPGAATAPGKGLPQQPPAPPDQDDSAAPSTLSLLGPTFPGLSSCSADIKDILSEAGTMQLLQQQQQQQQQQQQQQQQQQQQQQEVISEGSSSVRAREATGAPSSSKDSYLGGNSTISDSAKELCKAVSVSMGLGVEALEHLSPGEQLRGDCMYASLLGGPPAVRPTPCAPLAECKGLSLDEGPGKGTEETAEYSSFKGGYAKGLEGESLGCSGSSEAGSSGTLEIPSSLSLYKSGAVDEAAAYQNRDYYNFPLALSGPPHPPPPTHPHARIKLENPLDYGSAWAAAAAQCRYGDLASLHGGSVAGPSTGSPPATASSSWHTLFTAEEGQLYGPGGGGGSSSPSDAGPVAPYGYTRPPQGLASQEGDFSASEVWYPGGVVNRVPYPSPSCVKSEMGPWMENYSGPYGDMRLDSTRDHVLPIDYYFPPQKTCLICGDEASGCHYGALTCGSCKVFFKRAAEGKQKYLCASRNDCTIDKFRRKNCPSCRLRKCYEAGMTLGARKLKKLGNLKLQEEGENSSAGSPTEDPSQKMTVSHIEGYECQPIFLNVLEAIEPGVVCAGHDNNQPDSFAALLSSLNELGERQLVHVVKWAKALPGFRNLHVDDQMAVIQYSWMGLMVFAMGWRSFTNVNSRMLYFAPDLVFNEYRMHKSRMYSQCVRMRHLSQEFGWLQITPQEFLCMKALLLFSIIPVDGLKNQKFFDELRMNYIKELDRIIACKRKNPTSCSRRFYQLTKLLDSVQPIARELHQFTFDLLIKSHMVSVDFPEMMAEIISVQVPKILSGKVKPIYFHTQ

The target of experiment [5] is T4, Androgen receptor. The class given is functional.
Experiment [6] concerns the target T4, Androgen receptor. Type of experiment: functional. This is another data set of the same source.
Experiment [7] concerns the target 5-hydroxytryptamine receptor 2A (Homo sapiens, UniProt P28223).
Further: assay procedure not described here.

5-hydroxytryptamine receptor 2A, sequence (P28223 whole entry): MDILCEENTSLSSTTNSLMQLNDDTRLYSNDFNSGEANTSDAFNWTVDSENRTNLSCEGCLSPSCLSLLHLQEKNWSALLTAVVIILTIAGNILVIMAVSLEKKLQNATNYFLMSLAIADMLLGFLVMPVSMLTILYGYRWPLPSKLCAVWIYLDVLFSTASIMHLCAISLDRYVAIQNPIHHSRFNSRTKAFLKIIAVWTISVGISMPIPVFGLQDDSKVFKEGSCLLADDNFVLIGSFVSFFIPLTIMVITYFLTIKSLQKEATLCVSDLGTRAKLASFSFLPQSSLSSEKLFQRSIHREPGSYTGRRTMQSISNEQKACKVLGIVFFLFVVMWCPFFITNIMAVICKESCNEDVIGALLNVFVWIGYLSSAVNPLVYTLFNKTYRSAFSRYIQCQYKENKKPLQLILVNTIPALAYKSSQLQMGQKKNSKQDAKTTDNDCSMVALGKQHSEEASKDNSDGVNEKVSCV
Beta-3 adrenergic receptor, sequence (P13945 whole entry): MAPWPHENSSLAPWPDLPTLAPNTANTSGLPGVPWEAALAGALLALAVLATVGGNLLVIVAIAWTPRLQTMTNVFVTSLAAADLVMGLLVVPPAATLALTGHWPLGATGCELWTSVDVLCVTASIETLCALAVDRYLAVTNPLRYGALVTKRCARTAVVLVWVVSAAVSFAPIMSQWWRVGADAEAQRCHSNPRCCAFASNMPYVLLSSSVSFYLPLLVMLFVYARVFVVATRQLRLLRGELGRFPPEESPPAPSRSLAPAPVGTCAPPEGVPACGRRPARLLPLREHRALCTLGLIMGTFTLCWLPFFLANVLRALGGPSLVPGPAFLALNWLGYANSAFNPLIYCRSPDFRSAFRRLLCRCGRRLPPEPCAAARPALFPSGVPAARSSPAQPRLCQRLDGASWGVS
D(1A) dopamine receptor, sequence (P21728 whole entry): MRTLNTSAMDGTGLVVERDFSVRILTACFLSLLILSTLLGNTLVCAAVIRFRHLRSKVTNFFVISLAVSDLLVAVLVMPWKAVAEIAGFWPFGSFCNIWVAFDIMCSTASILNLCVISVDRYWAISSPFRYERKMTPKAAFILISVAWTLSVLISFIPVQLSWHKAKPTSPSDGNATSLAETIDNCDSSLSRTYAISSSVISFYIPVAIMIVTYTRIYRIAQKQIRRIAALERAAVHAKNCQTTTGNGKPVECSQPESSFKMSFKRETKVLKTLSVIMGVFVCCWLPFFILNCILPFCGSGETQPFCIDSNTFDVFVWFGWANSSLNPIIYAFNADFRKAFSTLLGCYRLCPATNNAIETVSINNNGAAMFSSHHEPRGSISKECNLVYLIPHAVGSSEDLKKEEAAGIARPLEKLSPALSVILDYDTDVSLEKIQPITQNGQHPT

As for `CNS(=O)(=O)Cc1ccc2[nH]cc(CCN(C)C)c2c1`, the AC50 (in general, the midpoint of the concentration-response curve, whichever way the signal moves) was greater than 30 µM in [1], greater than 30 µM at Progesterone receptor, greater than 10 µM in experiment [2] and greater than 10 µM on D(1A) dopamine receptor.

`COc1ccccc1N1CCN(CCCNc2cc(=O)n(C)c(=O)n2C)CC1` had an AC50 in [3] of 0.492 µM.

On to `NCC[C@H](O)C(=O)N[C@@H]1C[C@H](N)[C@@H](O[C@H]2O[C@H](CN)[C@@H](O)[C@H](O)[C@H]2O)[C@H](O)[C@H]1O[C@H]1O[C@H](CO)[C@@H](O)[C@H](N)[C@H]1O` [AMIKACIN], for which the AC50 at Androgen receptor [4] is greater than 10 µM.

Molecule `C=CCC1(CC(C)C)C(=O)NC(=O)NC1=O` [BUTALBITAL] yielded a half-maximal activity concentration (AC50) on Androgen receptor [4] greater than 10 µM.

As for `O=C(O)C1=C(CSc2nnnn2CS(=O)(=O)O)CS[C@@H]2[C@H](NC(=O)[C@H](O)c3ccccc3)C(=O)N12` [CEFONICID], the AC50 on Androgen receptor [4] is greater than 30 µM.

For `Cc1cc(O)c(C(=O)N[C@@H](C(=O)N[C@@H]2C(=O)N3C(C(=O)O)=C(CSc4nnnn4C)CS[C@H]23)c2ccc(O)cc2)cn1` [CEFPIRAMIDE], the AC50 at Androgen receptor [5] and on Androgen receptor [6] was greater than 30 µM throughout.

For `COc1ccc2c3c1O[C@H]1[C@@H](O)C=C[C@H]4[C@@H](C2)N(C)CC[C@@]341` [CODEINE], the AC50 in experiment [7] is greater than 10 µM; in [1], greater than 30 µM; on Progesterone receptor, greater than 30 µM; in experiment [2], greater than 10 µM; in experiment [3], greater than 10 µM; at D(1A) dopamine receptor, greater than 10 µM.

On to `Cn1c(=O)c2c(ncn2CC2OCCO2)n(C)c1=O` [DOXOFYLLINE], for which the AC50 at Androgen receptor [5] and on Androgen receptor [6] was greater than 30 µM in each case.

`CCc1c(Cl)c(O)c(Cl)c(O)c1C(=O)O[C@H]1[C@H](O)[C@H](OC)[C@H](OC/C2=C\C=C\C[C@H](O)/C(C)=C/[C@H](CC)[C@@H](O[C@@H]3OC(C)(C)[C@@H](OC(=O)C(C)C)[C@H](O)[C@@H]3O)/C(C)=C/C(C)=C/C[C@@H]([C@@H](C)O)OC2=O)O[C@@H]1C` [FIDAXOMICIN]: the AC50 was greater than 10 µM in [7]; greater than 30 µM on Androgen receptor [5]; greater than 30 µM in experiment [1]; 25 µM on Androgen receptor [4]; 11.3 µM on Progesterone receptor; greater than 10 µM in experiment [2]. The AC50 (in experiment [3]; at D(1A) dopamine receptor) was greater than 10 µM throughout.

On to `CC(C)Cn1cnc2c(N)nc3ccccc3c21` [IMIQUIMOD], for which the AC50 on Androgen receptor [4] is greater than 10 µM; on Progesterone receptor, greater than 30 µM; in experiment [3], greater than 10 µM.

Regarding `CCC(C(=O)O)c1ccc(N2Cc3ccccc3C2=O)cc1` (stereo not drawn) [INDOBUFEN], the AC50 on Androgen receptor [5] and on Androgen receptor [6] was greater than 30 µM in each case.

Regarding `CC(C(=O)O)c1ccc(N2Cc3ccccc3C2=O)cc1` (stereo not drawn) [INDOPROFEN], the AC50 is greater than 10 µM in experiment [7] and greater than 30 µM at D(1A) dopamine receptor.

For the molecule `CC(C)(C)c1cc(C(C)(C)C)c(NC(=O)c2c[nH]c3ccccc3c2=O)cc1O` [IVACAFTOR], the AC50 is greater than 10 µM in experiment [7]; 4.4 µM in [1]; greater than 30 µM at Androgen receptor [4]; greater than 30 µM on Progesterone receptor; greater than 10 µM in [2]; greater than 10 µM in [3]. On D(1A) dopamine receptor, this molecule gave an AC50 greater than 10 µM.

As to `COC(=O)C1=C(C)NC(C)=C(C(=O)OC(C)(C)CN(C)CCC(c2ccccc2)c2ccccc2)C1c1cccc([N+](=O)[O-])c1` (stereo not drawn) [LERCANIDIPINE], at Androgen receptor [4], the AC50 is greater than 30 µM.

In experiment [7], `C[C@H](N)[C@H](O)c1cccc(O)c1` [METARAMINOL] displayed an AC50 greater than 10 µM.

Consider `OC(CNCC(O)C1CCc2cc(F)ccc2O1)C1CCc2cc(F)ccc2O1` (stereo not drawn) [NEBIVOLOL], for which, in experiment [3], the activity was half-maximal at 0.14 µM (AC50).

Turning to `CCCc1nc(C(C)(C)O)c(C(=O)OCc2oc(=O)oc2C)n1Cc1ccc(-c2ccccc2-c2nnn[nH]2)cc1` [OLMESARTAN MEDOXOMIL], the AC50 in experiment [7] was greater than 10 µM; in experiment [1] it was greater than 30 µM; on Progesterone receptor it was greater than 30 µM; in [2], greater than 10 µM; in experiment [3], greater than 10 µM; on D(1A) dopamine receptor, greater than 10 µM.

Regarding `N#Cc1ccc([C@H]2CCc3cncn32)c(F)c1` [OSILODROSTAT], the AC50 (in experiment [2]; in experiment [3]; on D(1A) dopamine receptor) was greater than 10 µM each time.

On to `O=C(O)C[C@H](O)C[C@H](O)/C=C/c1c(C2CC2)nc2ccccc2c1-c1ccc(F)cc1` [PITAVASTATIN], for which the AC50 on Androgen receptor [4] was greater than 10 µM.

Turning to `CCCN(CCC)C(=O)C(CCC(=O)O)NC(=O)c1ccccc1` (stereo not drawn) [PROGLUMIDE], the AC50 in experiment [1] was greater than 30 µM; on Progesterone receptor, greater than 30 µM; in experiment [2] it was greater than 10 µM; in experiment [3], greater than 10 µM; at D(1A) dopamine receptor, greater than 10 µM.

On Androgen receptor [4], `COC(=O)[C@H]1[C@H]2C[C@@H]3c4[nH]c5cc(OC)ccc5c4CCN3C[C@H]2C[C@@H](OC(=O)/C=C/c2cc(OC)c(OC)c(OC)c2)[C@@H]1OC` [RESCINNAMINE] returned an AC50 greater than 10 µM.

For `C=CCC1(C(C)CC)C(=O)NC(=O)NC1=O` (stereo not drawn) [TALBUTAL], the AC50 in experiment [7] was greater than 10 µM.

Turning to `CN1C(=O)C(O)N=C(c2ccccc2)c2cc(Cl)ccc21` (stereo not drawn) [TEMAZEPAM], the AC50 in experiment [7] was greater than 10 µM; in experiment [1], greater than 30 µM; on Progesterone receptor, greater than 30 µM; in [2] it was greater than 10 µM; in [3] it was greater than 10 µM; at D(1A) dopamine receptor, greater than 10 µM.

In turn, `C/C(O)=C(\C#N)C(=O)Nc1ccc(C(F)(F)F)cc1` [TERIFLUNOMIDE] yielded an AC50 at Androgen receptor [5] greater than 30 µM.

With `CN1CCN(CC/C=C2/c3ccccc3Sc3ccc(S(=O)(=O)N(C)C)cc32)CC1` [THIOTHIXENE], the AC50 is greater than 30 µM in experiment [1]; greater than 30 µM at Androgen receptor [4]; greater than 30 µM on Progesterone receptor; 0.755 µM in experiment [2]; 0.0774 µM on D(1A) dopamine receptor.

`COc1cc2c(N)nc(N3CCN(C(=O)OCC(C)(C)O)CC3)nc2c(OC)c1OC` [TRIMAZOSIN] displayed an AC50 on Androgen receptor [5] of 17 µM.
